This note sets out measurements from ChEMBL document CHEMBL4152272, “Synthesis and evaluation of novel triazolyl quinoline derivatives as potential antileishmanial agents” (Eur J Med Chem, 2018).

The source made the active and inactive calls. The calls are words filed in the database; no cut-off is given here.

Data set [1] concerns Leishmania donovani. As to the kind of experiment: Antileishmanial activity against Leishmania donovani MHOM/IN/80/Dd8 amastigotes harboring luciferase reporter gene infected in mouse J774A.1 cells after 72 hrs by luminescence assay. Format: functional, organism-based. (In a reporter assay the amount or activity of a reporter protein is the signal.)
The test system of data set [2] is Leishmania donovani. As to the kind of experiment: Antileishmanial activity against Leishmania donovani MHOM/IN/80/Dd8 promastigotes harboring luciferase reporter gene after 72 hrs by luminescence assay. Format: functional, organism-based. The following applies: MHOM/IN/80/Dd8, 72 h.
Data set [3] in a line: Cytotoxicity against mouse J774A.1 cells after 48 hrs by MTT assay. Format: cell-based, J774.A1. (In general: Formazan colour is commonly taken as a measure of viable cells.)
Data set [4] in a line: Selectivity index, ratio of CC50 for cytotoxicity against mouse J774A.1 cells to IC50 for Leishmania donovani MHOM/IN/80/Dd8 amastigotes harboring luciferase reporter gene infected in mouse J774A.1 cells. The format is toxicity, cell-based. The following applies: read-out: Ratio CC50/IC50.
The test system of data set [5] is Leishmania donovani. As to the kind of experiment: Antileishmanial activity against Leishmania donovani MHOM/IN/80/Dd8 amastigotes infected in golden hamsters assessed as inhibition of parasite at 50 mg/kg, ip for 5 consecutive days measured on day 28 post last dose by Giemsa staining based assay relative to control. The format is functional. The following applies: MHOM/IN/80/Dd8, ip, 672 h.

The test system of data set [6] is Leishmania donovani. As to the kind of experiment: Antileishmanial activity against Leishmania donovani MHOM/IN/80/Dd8 amastigotes infected in golden hamsters assessed as inhibition of parasite at 50 mg/kg, ip for 5 consecutive days measured on day 7 post last dose by Giemsa staining based assay relative to control. The following applies: for inhibition in vivo at 50 mg/kg: MHOM/IN/80/Dd8, ip, 168 h. The format is functional.

Data set [7] concerns Leishmania donovani. The experiment in a line: Antileishmanial activity against Leishmania donovani MHOM/IN/80/Dd8 amastigotes infected in golden hamsters assessed as inhibition of parasite at 20 mg/kg, ip for 5 consecutive days measured on day 28 post last dose by Giemsa staining based assay relative to control. Format: functional, organism-based.
The test system of data set [8] is Leishmania donovani. As to the kind of experiment: Antileishmanial activity against Leishmania donovani MHOM/IN/80/Dd8 amastigotes infected in golden hamsters assessed as inhibition of parasite at 20 mg/kg, ip for 5 consecutive days measured on day 7 post last dose by Giemsa staining based assay relative to control. The format is functional, organism-based.
Where [9] appears, read: Leishmania donovani, MHOM/IN/80/Dd8, J774.A1, 72 h, read-out: IC50.

As usually defined, the IC50 is the midpoint of a concentration-inhibition curve. As to `Cc1nc2ccccc2c(-c2ccccc2)c1C(=O)OCc1cn(-c2ccc(C(C)(C)C)cc2)nn1`, the IC50 result in the data set on Leishmania donovani [1] is “Not Active”; in the data set with Leishmania donovani [2], 7 µM.
For `Cc1nc2ccc(Cl)cc2c(-c2ccccc2)c1C(=O)OCc1cn(-c2ccc(F)cc2)nn1`, in that order: “Not Active” and 17 µM.
Consider `Cc1nc2ccc(Cl)cc2c(-c2ccccc2)c1C(=O)OCc1cn(-c2ccc(C(C)C)cc2)nn1`, for which the IC50 entry was “Not Active” with Leishmania donovani [1] and 3 µM in the data set with Leishmania donovani [2].
The corresponding values for `Cc1ccc(-n2cc(COC(=O)c3c(C)nc4ccc(Cl)cc4c3-c3ccccc3)nn2)cc1` are “Not Active” and 10 µM.
For `COc1cccc(Cn2cc(COC(=O)c3c(C)nc4ccc(Cl)cc4c3-c3ccccc3)nn2)c1`, in that order: “Not Active” and 7 µM.
For the compound `Cc1nc2ccccc2c(-c2ccccc2)c1C(=O)OCc1cn(Cc2ccccc2F)nn1`, the IC50 result with Leishmania donovani [1] was “Not Active”; in the data set on Leishmania donovani [2] it was 4 µM.
For `Cc1nc2ccccc2c(-c2ccccc2)c1C(=O)OCc1cn(Cc2ccccc2C#N)nn1`, in that order: “Not Active” and 10 µM.
The corresponding values for `Cc1nc2ccc(Cl)cc2c(-c2ccccc2)c1C(=O)OCc1cn(-c2ccc(C(C)(C)C)cc2)nn1` are “Not Active” and 45 µM.
The corresponding values for `Cc1nc2ccccc2c(-c2ccccc2)c1C(=O)OCc1cn(Cc2ccc(F)cc2)nn1` are “Not Active” and 6 µM.
As a reminder, the CC50 is the concentration that lowers cell viability or growth by half. A lower CC50 goes with greater toxicity to the cells. As to `Cc1ccc(Cn2cc(COC(=O)c3c(C)nc4ccccc4c3-c3ccccc3)nn2)cc1`, in data set [3], half-maximal cytotoxicity (CC50 at 48 h) was put at 41 µM. Further, the selectivity ratio in data set [4] is 1.81. Further, the IC50 in the data set on Leishmania donovani [1] (setting [9]) was found to be 22 µM; in the data set on Leishmania donovani [2], 4 µM.
`COc1cccc(Cn2cc(COC(=O)c3c(C)nc4ccccc4c3-c3ccccc3)nn2)c1`: in data set [3], it took 36 µM to reach half-maximal cytotoxicity (CC50 at 48 h). For the same compound, the selectivity ratio in data set [4] was determined as 1. Moreover, the values for the IC50 in the data set on Leishmania donovani [1] (setting [9]) and in the data set on Leishmania donovani [2] were 34 µM and 16 µM, respectively.
Compound `Cc1ccc(-n2cc(COC(=O)c3c(C)nc4ccccc4c3-c3ccccc3)nn2)cc1F` had a CC50 at 48 h in data set [3] of 36 µM. The selectivity ratio in data set [4] is 2.12. For the same compound, the figures for the IC50 with Leishmania donovani [1] (setting [9]) and with Leishmania donovani [2] were 17 µM and 6 µM, respectively.
Turning to `Cc1nc2ccccc2c(-c2ccccc2)c1C(=O)OCc1cn(-c2ccc(F)cc2)nn1`, the IC50 entry with Leishmania donovani [1] was “Not Active”; in the data set on Leishmania donovani [2] it was 22 µM.
For orientation: inhibition in vivo means the relative decrease from the control value, in per cent. With `Cc1nc2ccc(Cl)cc2c(-c2ccccc2)c1C(=O)OCc1cn(Cc2ccc([N+](=O)[O-])cc2)nn1`, the CC50 at 48 h in data set [3] was found to be 75 µM. Also, the selectivity ratio in data set [4] was 4.6. Moreover, the IC50 in the data set on Leishmania donovani [1] (setting [9]) came to 16 µM; in the data set with Leishmania donovani [2], 5 µM. The figures for the inhibition in vivo at 50 mg/kg with Leishmania donovani [5] and with Leishmania donovani [6] were 22.7% and 6.63%, respectively.
In the case of `Cc1nc2ccc(Cl)cc2c(-c2ccccc2)c1C(=O)OCc1cn(Cc2ccccc2F)nn1`, the values for the IC50 result in the data set with Leishmania donovani [1] and in the data set with Leishmania donovani [2] were “Not Active” and 24 µM, respectively.
The inhibition is the change of the read-out against control, counted positive when it falls. Sodium Stibogluconate: the inhibition in the data set with Leishmania donovani [7] turned out to be 85.3%; in the data set on Leishmania donovani [8] it was 81.3%.
On to `Cc1nc2ccccc2c(-c2ccccc2)c1C(=O)OCc1cn(Cc2ccccc2)nn1`, for which the values for the IC50 result with Leishmania donovani [1] and in the data set on Leishmania donovani [2] were “Not Active” and 10 µM, respectively.
Turning to `Cc1nc2ccc(Cl)cc2c(-c2ccccc2)c1C(=O)OCc1cn(Cc2ccccc2)nn1`, the midpoint of cytotoxicity in data set [3], the CC50 at 48 h, lay at 35 µM. The selectivity ratio in data set [4] was determined as 4.5. Further, the values for the IC50 in the data set on Leishmania donovani [1] (setting [9]) and with Leishmania donovani [2] were 7 µM and 25 µM, respectively. Moreover, the inhibition in vivo at 50 mg/kg in the data set with Leishmania donovani [5] is 46.9%; in the data set with Leishmania donovani [6] it was 37.8%.
In turn, `Cc1ccc(-n2cc(COC(=O)c3c(C)nc4ccccc4c3-c3ccccc3)nn2)cc1` displayed a CC50 at 48 h in data set [3] of 39 µM. Further, the selectivity ratio in data set [4] is 5.58. In addition, the values for the half-inhibitory concentration (IC50) with Leishmania donovani [1] (setting [9]) and in the data set with Leishmania donovani [2] were 7 µM and 16 µM, respectively. In addition, the inhibition in vivo at 50 mg/kg with Leishmania donovani [5] is 40.4%. The inhibition result in the data set with Leishmania donovani [6] is “inactive”.
Take `Cc1ccc(Cn2cc(COC(=O)c3c(C)nc4ccc(Cl)cc4c3-c3ccccc3)nn2)cc1`: the IC50 result was “Not Active” in the data set with Leishmania donovani [1] and 34 µM in the data set with Leishmania donovani [2].
The corresponding values for `Cc1nc2ccccc2c(-c2ccccc2)c1C(=O)OCc1cn(-c2ccc(C(C)C)cc2)nn1` are “Not Active” and 5 µM.
For the compound `CCc1ccc(-n2cc(COC(=O)c3c(C)nc4ccccc4c3-c3ccccc3)nn2)cc1`, the IC50 result in the data set with Leishmania donovani [1] was “Not Active”; with Leishmania donovani [2] it was 8 µM.
Take `Cc1nc2ccccc2c(-c2ccccc2)c1C(=O)OCc1cn(Cc2ccc([N+](=O)[O-])cc2)nn1`: the CC50 at 48 h in data set [3] amounted to 42 µM. Besides, the selectivity ratio in data set [4] came out at 2.3. Further, the IC50 in the data set on Leishmania donovani [1] (setting [9]) worked out at 18 µM; in the data set with Leishmania donovani [2], 9 µM.
The corresponding values for `CCCCCCCCCCCCCCCCOP(=O)([O-])OCC[N+](C)(C)C` [MILTEFOSINE] are 56 µM, 6.72, 8 µM and 1 µM.
`Cc1ccc(-n2cc(COC(=O)c3c(C)nc4ccc(Cl)cc4c3-c3ccccc3)nn2)cc1F` came in with a CC50 at 48 h in data set [3] of 34 µM. Also, in data set [4], the selectivity ratio is 2.9. In addition, the half-maximal inhibitory concentration (IC50) in the data set on Leishmania donovani [1] (setting [9]) was found to be 12 µM; in the data set on Leishmania donovani [2], 4 µM.
In the case of `CCc1ccc(-n2cc(COC(=O)c3c(C)nc4ccc(Cl)cc4c3-c3ccccc3)nn2)cc1`, the CC50 at 48 h in data set [3] was 99 µM. For the same compound, the selectivity ratio in data set [4] turned out to be 7. Besides, the IC50 with Leishmania donovani [1] (setting [9]) came to 14 µM; with Leishmania donovani [2] it was 5 µM. Also, the inhibition in vivo at 50 mg/kg came out at 17.3% in the data set on Leishmania donovani [5] and 9.76% in the data set with Leishmania donovani [6].
For the compound `Cc1nc2ccc(Cl)cc2c(-c2ccccc2)c1C(=O)OCc1cn(Cc2ccc(F)cc2)nn1`, the results for the IC50 result with Leishmania donovani [1] and in the data set on Leishmania donovani [2] were “Not Active” and 2 µM, respectively.
